The record followed here is patent US12180226B2, “Spirotricycle RIPK1 inhibitors and methods of uses thereof” (Merck Sharp & Dohme LLC, priority 2021, dated 2024).

This test addresses RIPK1 (recombinant GST-RIPK1 kinase domain, residues 1-327) (Homo sapiens (Human), UniProt Q13546). The test is described as follows: RIPK1-ADP-Glo Enzymatic Assay. The test is classed as biochemical. The settings on record: ADP-Glo; 25 nM GST-RIPK1, 300 μM ATP; assay lower limit ~25 nM; read-out: RIPK1 V0 Ec50. An outline of the steps:
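GST-tagged kinase domain (residues 1-327, Sf21-expressed), 25 nM, pre-incubated 30 min with compound at ambient temperature, then reacted 150 min with 300 μM ATP and 3 μM dephosphorylated MBP in HEPES pH 7.3 buffer. ADP measured by ADP-Glo luminescence; EC50 from ten-point titration (top 100000 nM), four-parameter fit.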
On the technique in general: In ADP-Glo the light output rises with the ADP produced.

Counter-ions that a name gives are not always drawn. Bounds are passed on as bounds.

Chain of RIPK1 (recombinant GST-RIPK1 kinase domain, residues 1-327) (Q13546 1-327): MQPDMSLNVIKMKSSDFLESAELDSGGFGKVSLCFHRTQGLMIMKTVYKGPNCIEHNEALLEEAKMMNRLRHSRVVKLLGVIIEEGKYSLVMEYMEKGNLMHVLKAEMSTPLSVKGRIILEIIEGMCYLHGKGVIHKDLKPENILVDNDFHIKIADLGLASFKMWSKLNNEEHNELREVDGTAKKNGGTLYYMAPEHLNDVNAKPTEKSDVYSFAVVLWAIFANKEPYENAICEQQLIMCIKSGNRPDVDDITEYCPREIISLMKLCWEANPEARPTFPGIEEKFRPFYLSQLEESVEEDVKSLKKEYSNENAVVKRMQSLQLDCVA

With `N#Cc1cc(N2CCC3(CC2)C[C@@H]2OC[C@@H](c4ccccc4)N2C3=O)ncn1` [Example 4.113, 6-[(3′R,7a′S)-5′-oxo-3′-phenyltetrahydro-1H,5′H-spiro[piperidine-4,6′-pyrrolo[2,1-b] [1,3]oxazol]-1-yl]pyrimidine-4-carbonitrile], the EC50 was 309 nM.

Consider `N#Cc1cnnc(N2CCC3(CC2)O[C@@H]2CC[C@@H](c4cc(F)cc(F)c4)N2C3=O)c1` [Example 4.19, 6-[(5′S,7a′R)-5′-(3,5-difluorophenyl)-3′-oxotetrahydro-1H,3′H-spiro[piperidine-4,2′-pyrrolo[2,1-b] [1,3]oxazol]-1-yl]pyridazine-4-carbonitrile], for which the EC50 came out at 477 nM.

On to `O=C(c1ccoc1)N1CCC2(CC1)O[C@@H]1CC[C@@H](c3cccc(F)c3)N1C2=O` [Example 6.125, (5′S,7a′R)-5′-(3-fluoro-phenyl)-1-(furan-3-carbonyl)tetrahydro-3′H-spiro[piperidine-4,2′-pyrrolo[2,1-b] [1,3]oxazol]-3′-one], for which the EC50 is below 25 nM.

Regarding `COc1cnc(N2CCC3(CC2)O[C@@H]2CC[C@@H](c4cc(F)cc(F)c4)N2C3=O)nc1` [Example 4.64, (5′S,7a′R)-5′-(3,5-difluorophenyl)-1-(5-methoxypyrimidin-2-yl)tetrahydro-3′H-spiro[piperidine-4,2′-pyrrolo[2,1-b] [1,3]oxazol]-3′-one], the EC50 amounted to 80.7 nM.

As for `N#Cc1cc(N2CCC3(CC2)O[C@@H]2CC[C@@H](c4cc(F)cc(F)c4)N2C3=O)ncn1` [Example 4.4, 6-[(5′S,7a′R)-5′-(3,5-difluorophenyl)-3′-oxotetrahydro-1H,3′H-spiro[piperidine-4,2′-pyrrolo[2,1-b] [1,3]oxazol]-1-yl]pyrimidine-4-carbonitrile], the EC50 was below 25 nM.

On to `N#Cc1cn[nH]c1C(=O)N1CCC2(CC1)O[C@@H]1CC[C@@H](c3cc(F)cc(F)c3)N1C2=O` [Example 5.40, 5-((5′S,7a′R)-5′-(3,5-difluorophenyl)-3′-oxo-tetrahydro-3′H-spiro [piperidine-4,2′-pyrrolo-[2,1-b]oxazole]-1-carbon-yl)-1H-pyrazole-4-car-bonitrile], for which the EC50 is 459 nM.

Consider `C[C@@]12CC[C@@H](c3ccccc3)N1C(=O)C1(CCN(C(=O)c3ccccc3)CC1)O2` [Example 6.98, (5′S,7a′R)-1-(benzene-carbonyl)-7a′-methyl-5′-phenyltetrahydro-3′H-spiro[piperidine-4,2′-pyrrolo[2,1-b] [1,3]oxazol]-3′-one], for which the EC50 was determined as 523 nM.

Turning to `Cc1ccccc1[C@@H]1CC[C@H]2OC3(CCN(C(=O)c4ccccc4)CC3)C(=O)N21` [Example 6.135, (5′S,7a′R)-1-(benzene-carbonyl)-5′-(2-meth-ylphenyl)tetrahydro-3′H-spiro[piperidine-4,2′-pyrrolo[2,1-b] [1,3]oxazol]-3′-one], the EC50 amounted to 457 nM.

As for `Cc1ncc([C@@H]2CC[C@H]3OC4(CCN(c5ccnc6c(F)cnn56)CC4F)C(=O)N32)cc1F` (stereo partly drawn) [Example 4.131, (5′S,7a′R)-3-fluoro-5′-(5-fluoro-6-methylpyridin-3-yl)-1-(3-fluoropyrazolo[1,5-a]pyrimidin-7-yl)tetrahydro-3′H-spiro[piperidine-4,2′-pyrrolo[2,1-b] [1,3]oxazol]-3′-one], the EC50 was 30.6 nM.

For the compound `O=C(c1cc(F)ccc1F)N1CC2(C1)O[C@@H]1CC[C@@H](c3ccccc3F)N1C2=O` [Example 1.18, (5′S,7a′R)-1-(2,5-difluorobenzoyl)-5′-(2-fluorophenyl)tetrahydro-3′H-spiro[azetidine-3,2′-pyrrolo[2,1-b]oxazol]-3′-one], the concentration for a half-maximal effect (EC50) came out at 39 nM.

On to `O=C1N2[C@@H](CC[C@H]2c2cccc(F)c2)OC12CCN(c1ccnc3ccnn13)CC2` [Example 4.123, (5′S,7a′R)-5′-(3-fluorophenyl)-1-(pyrazolo[1,5-a]pyrimidin-7-yl)tetrahydro-3′H-spiro[piperidine-4,2′-pyrrolo[2,1-b] [1,3]oxazol]-3′-one], for which the 50% effective concentration (EC50) is below 25 nM.

Turning to `O=C1N2[C@@H](CC[C@H]2c2ccccc2)OC12CCN(c1ccc(Cl)c3ccnn13)CC2` [Example 4.153, (5′S,7a′R)-1-(4-chloropyrazolo[1,5-a]pyridin-7-yl)-5′-phenyltetrahydro-3′H-spiro[piperidine-4,2′-pyrrolo[2,1-b] [1,3]oxazol]-3′-one], the concentration for a half-maximal effect (EC50) is below 25 nM.

As for `COc1ncccc1C(=O)N1CCC2(CC1)O[C@@H]1CC[C@@H](c3cc(F)cc(F)c3)N1C2=O` [Example 6.18, (5′S,7a′R)-5′-(3,5-difluorophenyl)-1-(2-methoxypyridine-3-carbonyl)tetrahydro-3′H-spiro[piperidine-4,2′-pyrrolo[2,1-b] [1,3]oxazol]-3′-one], the EC50 was found to be 154 nM.

Turning to `O=C1N2C(CCC2c2c(F)cccc2F)OC12CCN(c1ccnc3ccnn13)CC2` (stereo not shown) [Example 20.8, 5′-(2,6-difluorophenyl)-1-(pyrazolo[1,5-a]pyrimidin-7-yl)tetrahydro-3′H-spiro[piperidine-4,2′-pyrrolo[2,1-b][1,3]oxazol]-3′-one], the EC50 is below 25 nM.

Turning to `O=C(c1ccccc1)N1CCC2(CC1)O[C@@H]1[C@@H](O)C[C@@H](c3ccccc3)N1C2=O` [Example 6.136], the EC50 turned out to be 136 nM.

As for `COC(=O)N1CCC2(CC1)O[C@@H]1CC[C@@H](c3cc(F)cc(F)c3)N1C2=O` [Example 1.2, methyl (5′S,7a′R)-5′-(3,5-difluorophenyl)-3′-oxotetrahydro-1H,3′H-spiro[piperidine-4,2′-pyrrolo[2,1-b] [1,3]oxazole]-1-carboxylate], the EC50 came out at 115 nM.

Consider `Cc1nc(N2CCC3(CC2)C[C@@H]2OC[C@@H](c4ccccc4)N2C3=O)ccc1C#N` [Example 4.78, 2-methyl-6-[(3′R,7a′S)-5′-oxo-3′-phenyltetrahydro-1H,5′H-spiro[piperidine-4,6′-pyrrolo[2,1-b] [1,3]oxazol]-1-yl]pyridine-3-carbonitrile], for which the EC50 stood at 58.7 nM.

For the compound `O=C1N2[C@@H](CO[C@H]2c2cc(F)cc(F)c2)CC12CCN(c1ccnc3ccnn13)CC2` (stereo in doubt) [Example 4.147, 3′-(3,5-difluorophenyl)-1-(pyrazolo[1,5-a]pyrimidin-7-yl)dihydro-1′H,3′H,5′H-spiro[piperidine-4,6′-pyrrolo[1,2-c] [1,3]oxazol]-5′-one], the concentration giving a half-maximal response (EC50) is below 25 nM.

As for `O=C1CCc2c1cccc2C(=O)N1CCC2(CC1)O[C@@H]1CC[C@@H](c3cc(F)cc(F)c3)N1C2=O` [Example 5.28, (5′S,7a′R)-5′-(3,5-difluoro-phenyl)-1-(1-oxo-2,3-dihydro-1H-indene-4-carbonyl)tetrahydro-3′H-spiro[piperidine-4,2′-pyrrolo[2,1-b]oxazol]-3′-one], the half-maximal effective concentration (EC50) is 208 nM.

In the case of `O=C(c1cc(F)ccc1F)N1CC2(C1)O[C@@H]1CC[C@@H](c3cc(F)cc(F)c3)N1C2=O` [Example 1.20, (5′S,7a′R)-1-(2,5-difluorobenzoyl)-5′-(3,5-difluorophenyl)tetrahydro-3′H-spiro[azetidine-3,2′-pyrrolo[2,1-b]oxazol]-3′-one], the 50% effective concentration (EC50) is 41.7 nM.

For the compound `COC(=O)c1cnc(N2CCC3(CC2)O[C@@H]2CC[C@@H](c4ccccc4)N2C3=O)nc1` [Example 4.194, methyl 2-[(5′S,7a′R)-3′-oxo-5′-phenyltetrahydro-1H,3′H-spiro[piperidine-4,2′-pyrrolo[2,1-b] [1,3]oxazol]-1-yl]pyrimidine-5-carboxylate], the half-maximal effective concentration (EC50) was 699 nM.

Consider `O=C1N2[C@@H](CC[C@H]2c2cc(F)cc(F)c2)OC12CCN(c1ncc(F)c(C(F)F)n1)CC2` [Example 4.66, (5′S,7a′R)-1-[4-(difluoromethyl)-5-fluoropyrimidin-2-yl]-5′-(3,5-difluorophenyl)tetrahydro-3′H-spiro[piperidine-4,2′-pyrrolo[2,1-b] [1,3]oxazol]-3′-one], for which the EC50 was determined as 38.4 nM.

With `O=C(c1ccccc1)N1CCC2(CC1)O[C@@H]1CC[C@@H](c3cncc(F)c3)N1C2=O` [Example 1.4, (5′S,7a′R)-1-(benzenecarbonyl)-5′-(5-fluoropyridin-3-yl)tetrahydro-3′H-spiro[piperidine-4,2′-pyrrolo[2,1-b] [1,3]oxazol]-3′-one], the EC50 came to 121 nM.

Take `O=C1N2[C@@H](CC[C@H]2c2ccccc2)OC12CCN(c1ncnn3ccnc13)CC2` [Example 4.227, (5′S,7a′R)-1-(imidazo[2,1-f] [1,2,4]triazin-4-yl)-5′-phenyltetrahydro-3′H-spiro[piperidine-4,2′-pyrrolo[2,1-b] [1,3]oxazol]-3′-one]: the concentration for a half-maximal effect (EC50) came to 27.3 nM.

For the compound `N#Cc1ccc(N2CC3(C2)O[C@@H]2CC[C@@H](c4ccccc4)N2C3=O)c2ccnn12` [Example 13.21, 4-((5′S,7a′R)-3′-oxo-5′-phenyltetrahydro-3′H-spiro[azetidine-3,2′-pyrrolo[2,1-b]oxazol]-1-yl)pyrazolo[1,5-a]pyridine-7-carbonitrile, TFA salt], the EC50 turned out to be 25.3 nM.

On to `O=C1N2[C@@H](CC[C@H]2c2ccccc2F)OC12CN(c1ccnc(-c3cnn(C(F)F)c3)c1)C2` [Example 4.138, (5′S,7a′R)-1-{2-[1-(difluoromethyl)-1H-pyrazol-4-yl]pyridin-4-yl}-5′-(2-fluorophenyl)tetrahydro-3′H-spiro[azetidine-3,2′-pyrrolo[2,1-b] [1,3]oxazol]-3′-one], for which the EC50 worked out at 145 nM.

`CCOc1cccc(C(=O)N2CCC3(CC2)O[C@@H]2CC[C@@H](c4ccccc4)N2C3=O)c1` [Example 6.139, (5′S,7a′R)-1-(3-ethoxybenzene-1-carbonyl)-5′-phenyl-tetrahydro-3′H-spiro [piperidine-4,2′-pyrrolo[2,1-b][1,3]-oxazol]-3′-one]: the EC50 is below 25 nM.

Regarding `N#Cc1cc(N2CCC3(CC2)O[C@@H]2CC[C@@H](c4cccc(F)c4)N2C3=O)ncn1` [Example 4.122, 6-[(5′S,7a′R)-5′-(3-fluorophenyl)-3′-oxotetrahydro-1H,3′H-spiro[piperidine-4,2′-pyrrolo[2,1-b] [1,3]oxazol]-1-yl]pyrimidine-4-carbonitrile], the EC50 was determined as 35.6 nM.

As a reminder, the EC50 is the concentration that produces a half-maximal response.
